Assay results taken from patent publication US9670227B2, “Thienopyrimidine derivatives, a process for their preparation and pharmaceutical compositions containing them” (LES LABORATOIRES SERVIER, priority 2013, dated 2017).
Like-named read-outs stand apart in the source and are kept apart here.

Tests used:
Mcl-1 protein = Mcl-1 protein (UniProtKB primary accession number: Q07820) (Homo sapiens, UniProt Q07820); test: Inhibition of Mcl-1 by fluorescence polarisation, Method 1; format: binding; settings: fluorescence polarisation; Method 1, or Method 2; read-out: IC50 (M) Mcl-1 FP
Mcl-1 protein, sequence (Q07820 whole entry): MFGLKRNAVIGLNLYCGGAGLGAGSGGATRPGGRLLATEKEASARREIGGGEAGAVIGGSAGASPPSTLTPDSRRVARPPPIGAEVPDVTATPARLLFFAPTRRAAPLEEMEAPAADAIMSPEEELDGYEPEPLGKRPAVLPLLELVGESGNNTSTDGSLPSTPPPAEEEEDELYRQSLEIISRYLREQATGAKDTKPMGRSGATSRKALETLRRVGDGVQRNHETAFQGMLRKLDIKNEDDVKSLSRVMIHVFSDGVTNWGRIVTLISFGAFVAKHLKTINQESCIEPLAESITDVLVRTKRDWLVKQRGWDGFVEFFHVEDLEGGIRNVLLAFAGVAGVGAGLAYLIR
How it was run: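 Buffer of 10 mM HEPES pH 7.4 with 150 mM NaCl and 0.05% Tween 20 held 5 nM Mcl-1 and 1 nM fluorescein-tagged ligand (final). Compounds were tested as 11-point serial dilutions at 5% final DMSO, and binding was read by FP.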

[1] = tested on: H929 multiple myeloma tumour line; test: In vitro cytotoxicity, Microculture Tetrazolium Assay; format: cell-based; settings: H929 cells, 48 hours exposure, MTT, read-out: IC50 (μM) MTT H929
Procedure: The cytotoxicity studies were carried out on the H929 multiple myeloma tumour line.
The cells are distributed onto microplates and exposed to the test compounds for 48 hours.

Structure (SMILES)	IC50 (Mcl-1 protein) [M]	IC50 ([1]; Homo sapiens, NCI-H929, 48 h) [µM]	IC50 [1] [µM]
COc1cc(F)ccc1CC(Oc1ncnc2sc(-c3ccc(Cl)o3)c(-c3ccc(OCCN4CCN(C)CC4)c(Cl)c3C)c12)C(=O)O [Example 718, (2R)-2-{[6-(5-chlorofuran-2-yl)-(5Sa)-5-{3-chloro-2-methyl-4-[2-(4-methylpiperazin-1-yl)ethoxy]phenyl}thieno[2,3-d]pyrimidin-4-yl]oxy}-3-(4-fluoro-2-methoxyphenyl)propanoic acid]	1.2e-08	0.082	
Cc1c(-c2c(-c3ccc(F)cc3)sc3ncnc(OC(Cc4ccccc4OCc4ccnc(-c5ccccc5OCc5ccccc5)n4)C(=O)O)c23)ccc(OCCN2CCN(C)CC2)c1Cl [Example 725, (2R)-3-[2-({2-[2-(benzyloxy)phenyl]pyrimidin-4-yl}methoxy)phenyl]-2-{[(5Sa)-5-{3-chloro-2-methyl-4-[2-(4-methylpiperazin-1-yl)ethoxy]phenyl}-6-(4-fluorophenyl)thieno[2,3-d]pyrimidin-4-yl]oxy}propanoic acid]	1.46e-09	0.01	
Cc1c(-c2c(-c3ccc(F)cc3)sc3ncnc(OC(Cc4ccccc4OCc4ccnc(-c5ccccc5C(F)(F)F)n4)C(=O)O)c23)ccc(OCCN2CCN(C)CC2)c1Cl [Example 727, (2R)-2-{[(5Sa)-5-{3-chloro-2-methyl-4-[2-(4-methylpiperazin-1-yl)ethoxy]phenyl}-6-(4-fluorophenyl)thieno[2,3-d]pyrimidin-4-yl]oxy}-3-[2-({2-[2-(trifluoromethyl)phenyl]pyrimidin-4-yl}methoxy)phenyl]propanoic acid]	1.32e-09	0.013	
COc1cnccc1-c1nccc(COc2ccccc2CC(Oc2ncnc3sc(-c4ccc(F)cc4)c(-c4ccc(OCCN5CCN(C)CC5)c(Cl)c4C)c23)C(=O)O)n1 [Example 730, (2R)-2-{[(5Sa)-5-{3-chloro-2-methyl-4-[2-(4-methylpiperazin-1-yl)ethoxy]phenyl}-6-(4-fluorophenyl)thieno[2,3-d]pyrimidin-4-yl]oxy}-3-(2-{[2-(3-methoxypyridin-4-yl)pyrimidin-4-yl]methoxy}phenyl)propanoic acid]	9.48e-10	0.005	
Cc1cc(-c2nccc(COc3ccccc3C[C@@H](Oc3ncnc4sc(-c5ccc(F)cc5)c(-c5ccc(OCCN6CCN(C)CC6)c(Cl)c5C)c34)C(=O)O)n2)cnc1C [Example 732, (2R)-2-{[(5Sa)-5-{3-chloro-2-methyl-4-[2-(4-methylpiperazin-1-yl)ethoxy]phenyl}-6-(4-fluorophenyl)thieno[2,3-d]pyrimidin-4-yl]oxy}-3-(2-{[2-(5,6-dimethylpyridin-3-yl)pyrimidin-4-yl]methoxy}phenyl)propanoic acid]	1.27e-09		0.013
COc1ccc(-c2nccc(COc3ccccc3CC(Oc3ncnc4sc(-c5ccc(F)cc5)c(-c5ccc(OCCN6CCN(C)CC6)c(Cl)c5C)c34)C(=O)O)n2)c(OC)c1 [Example 733, (2R)-2-{[(5Sa)-5-{3-chloro-2-methyl-4-[2-(4-methylpiperazin-1-yl)ethoxy]phenyl}-6-(4-fluorophenyl)thieno[2,3-d]pyrimidin-4-yl]oxy}-3-(2-{[2-(2,4-dimethoxyphenyl)pyrimidin-4-yl]methoxy}phenyl)propanoic acid]	9.48e-10	0.005	
COc1cc(-c2nccc(COc3ccccc3CC(Oc3ncnc4sc(-c5ccc(F)cc5)c(-c5ccc(OCCN6CCN(C)CC6)c(Cl)c5C)c34)C(=O)O)n2)ccn1 [Example 735, (2R)-2-{[(5Sa)-5-{3-chloro-2-methyl-4-[2-(4-methylpiperazin-1-yl)ethoxy]phenyl}-6-(4-fluorophenyl)thieno[2,3-d]pyrimidin-4-yl]oxy}-3-(2-{[2-(2-methoxypyridin-4-yl)pyrimidin-4-yl]methoxy}phenyl)propanoic acid]	9.48e-10	0.007	
COc1ccccc1-n1nccc1COc1ccccc1CC(Oc1ncnc2sc(-c3ccc(F)cc3)c(-c3ccc(OCCN4CCN(C)CC4)c(Cl)c3C)c12)C(=O)O [Example 738, (2R)-2-{[(5Sa)-5-{3-chloro-2-methyl-4-[2-(4-methylpiperazin-1-yl)ethoxy]phenyl}-6-(4-fluorophenyl)thieno[2,3-d]pyrimidin-4-yl]oxy}-3-(2-{[1-(2-methoxyphenyl)-1H-pyrazol-5-yl]methoxy}phenyl)propanoic acid]	3.78e-09	0.103	
COc1ccccc1Cn1nccc1COc1ccccc1CC(Oc1ncnc2sc(-c3ccc(F)cc3)c(-c3ccc(OCCN4CCN(C)CC4)c(Cl)c3C)c12)C(=O)O [Example 739, (2R)-2-{[(5Sa)-5-{3-chloro-2-methyl-4-[2-(4-methylpiperazin-1-yl)ethoxy]phenyl}-6-(4-fluorophenyl)thieno[2,3-d]pyrimidin-4-yl]oxy}-3-(2-{[1-(2-methoxybenzyl)-1H-pyrazol-5-yl]methoxy}phenyl)propanoic acid]	2.32e-09	0.093	
COc1ccccc1-c1nccc(COc2ccccc2CC(Oc2ncnc3sc(-c4ccc(F)cc4)c(-c4ccc(OCCN5CCNCC5)c(Cl)c4C)c23)C(=O)O)n1 [Example 744, (2R)-2-{[(5Sa)-5-{3-chloro-2-methyl-4-[2-(piperazin-1-yl)ethoxy]phenyl}-6-(4-fluorophenyl)thieno[2,3-d]pyrimidin-4-yl]oxy}-3-(2-{[2-(2-methoxyphenyl)pyrimidin-4-yl]methoxy}phenyl)propanoic acid]	9.48e-10	0.042	
CCN1CCN(CCOc2ccc(-c3c(-c4ccc(F)cc4)sc4ncnc(OC(Cc5ccccc5OCc5ccnc(-c6ccccc6F)n5)C(=O)O)c34)c(C)c2Cl)CC1 [Example 745, (2R)-2-{[(5Sa)-5-{3-chloro-4-[2-(4-ethylpiperazin-1-yl)ethoxy]-2-methylphenyl}-6-(4-fluorophenyl)thieno[2,3-d]pyrimidin-4-yl]oxy}-3-(2-{[2-(2-fluorophenyl)pyrimidin-4-yl]methoxy}phenyl)propanoic acid]	9.48e-10	0.003	
CCN(CC)CCOc1ccc(-c2c(-c3ccc(F)cc3)sc3ncnc(OC(Cc4ccccc4OCc4ccnc(-c5ccccc5F)n4)C(=O)O)c23)c(C)c1Cl [Example 746, (2R)-2-{[(5Sa)-5-{3-chloro-4-[2-(diethylamino)ethoxy]-2-methylphenyl}-6-(4-fluorophenyl)thieno[2,3-d]pyrimidin-4-yl]oxy}-3-(2-{[2-(2-fluorophenyl)pyrimidin-4-yl]methoxy}phenyl)propanoic acid]	3.5e-09	0.111	
CCN(C)CCOc1ccc(-c2c(-c3ccc(F)cc3)sc3ncnc(OC(Cc4ccccc4OCc4ccnc(-c5ccccc5F)n4)C(=O)O)c23)c(C)c1Cl [Example 747, (2R)-2-{[(5Sa)-5-(3-chloro-4-{2-[ethyl(methyl)amino]ethoxy}-2-methylphenyl)-6-(4-fluorophenyl)thieno[2,3-d]pyrimidin-4-yl]oxy}-3-(2-{[2-(2-fluorophenyl)pyrimidin-4-yl]methoxy}phenyl)propanoic acid]	3.6e-09	0.0263	
Cc1cc(-c2nccc(COc3ccccc3CC(Oc3ncnc4sc(-c5ccc(F)cc5)c(-c5ccc(OCCN(C)C)c(Cl)c5C)c34)C(=O)O)n2)c(C)cn1 [Example 751, (2R)-2-{[(5Sa)-5-{3-chloro-4-[2-(dimethylamino)ethoxy]-2-methylphenyl}-6-(4-fluorophenyl)thieno[2,3-d]pyrimidin-4-yl]oxy}-3-(2-{[2-(2,5-dimethylpyridin-4-yl)pyrimidin-4-yl]methoxy}phenyl)propanoic acid]	9.48e-10	0.008	
